In PubChem BioAssay (NCI):
≈ marks a conversion by molar mass, not a printed value.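 In this assay, cells in 96-well plates receive the compound at five concentrations for 48 hours. Endpoints are linearly interpolated between the surrounding concentrations. Here, GI50 denotes the concentration required for 50% inhibition of growth. TGI is the concentration that stops growth completely.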

How the values were obtained:
Experiment in all cases: growth of human tumour cells (NCI), 48 h
BT-549 breast = tested on: BT-549 breast
ACHN renal = tested on: ACHN renal
HL-60(TB) leukemia = tested on: HL-60(TB) leukemia
SR leukemia = tested on: SR leukemia
NCI-H226 lung = tested on: NCI-H226 lung
A498 renal = tested on: A498 renal

For `O=C1NN(C2=NNC3(C(=O)N2)c2ccccc2-c2ccccc23)C(c2ccccc2)=N/C1=C/c1ccc(Cl)cc1`, the GI50 (BT-549 breast) was 150 µg/mL (≈ 275 µM), the TGI (BT-549 breast) was > 150 µg/mL and the GI50 (ACHN renal) was 50.4 µg/mL (≈ 92.5 µM). The TGI (ACHN renal) was > 150 µg/mL, the GI50 (HL-60(TB) leukemia) was 50.1 µg/mL (≈ 91.9 µM) and the TGI (HL-60(TB) leukemia) was > 150 µg/mL. For the same compound, the GI50 (SR leukemia) was 62 µg/mL (≈ 114 µM) and the TGI (SR leukemia) was > 150 µg/mL.

With `O=c1oc2ccccc2c(O)c1Cc1ccc(Cc2c(O)c3ccccc3oc2=O)cc1` the TGI (BT-549 breast) was > 100 µM, the TGI (HL-60(TB) leukemia) was > 100 µM and the TGI (NCI-H226 lung) was > 100 µM. For the same compound, the TGI (A498 renal) was > 100 µM and the TGI (SR leukemia) was > 100 µM.

With `CCOC(=O)c1csc(NC(=O)C(C)N2CCCC2)n1` (stereo not given) the TGI (ACHN renal) was > 100 µM and the TGI (A498 renal) was > 100 µM.
